Here are results for eleven compounds from patent US20250059187A1, “COVALENTLY BINDING INHIBITORS OF G12S, G12D AND/OR G12E MUTANTS OF K-RAS GTPASE” (The Regents of the University of California, priority 2021, published 2025).

The target in assay [1] is T1, wild type K-Ras (Homo sapiens, UniProt P01116).
T1 construct: human K-Ras (wildtype, aa 1-169); 6xHis tag + TEV cleavage site (N, cleaved yes); made in house; host or cells: E. coli BL21(DE3)
Briefly: Covalent modification of recombinant wild-type K-Ras by whole-protein mass spectrometry. The format is binding. To be noted: 23° C.; for % covalent modification of wild type K-Ras: 24-h incubation, 100 μM compound, pH 7.5. Here is the method:
(§1) Test compounds were prepared as 100× stock solutions in DMSO. K-Ras proteins were diluted with SEC Buffer (20 mM HEPES 7.5, 150 mM NaCl, 1 mM MgCl2) to 400 nM or 1 μM. In a typical reaction, 0.5 μL 100× compound stock was mixed with 50 μL diluted K-Ras protein, and the resulting mixture was incubated for the desired amount of time. The extent of modification was assessed by electrospray mass spectrometry using a Waters Xevo G2-XS system equipped with an Acquity UPLC BEH C4 1.7 μm column. The mobile phase was a linear gradient of 5-95% acetonitrile/water+0.05% formic acid. For kinetic measurements, a 2× compound solution was first prepared in SEC Buffer, which was then mixed with 400 nM K-Ras(G12S) protein at 1:1 (v/v) ratio. Injection time stamps were used to calculate elapsed time.
as §1, with “K-Ras(G12D)” for “K-Ras(G12S)”

The next assay deals with K-Ras(G12S) (Homo sapiens, UniProt P01116, G12S). Put plainly: Covalent modification of recombinant K-Ras(G12S) by whole-protein mass spectrometry. It is filed as binding. Also on record: human K-Ras (G12S, aa 1-169); 6xHis tag + TEV cleavage site (N, cleaved yes); made in house; host or cells: E. coli BL21(DE3). The following applies: 23° C.; for % covalent modification of K-Ras G12S: 24-h incubation, 100 μM compound, pH 7.5; for covalent reaction with K-Ras(G12S)·GDP: 10 μM compound. Here is the method:
as §1, with “The mobile phase was a linear gradient of 5-95% acetonitrile/water+0.05% formic acid.” left out
as §1, with “The mobile phase was a linear gradient of 5-95% acetonitrile/water+0.05% formic acid.” left out, “K-Ras(G12D)” for “K-Ras(G12S)”

The target in a further assay is T2, K-Ras G12E (Homo sapiens, UniProt P01116, G12E).
T2 construct: human K-Ras (G12E, aa 1-169); 6xHis tag + TEV cleavage site (N, cleaved yes); made in house; host or cells: E. coli BL21(DE3)
Put plainly: Covalent modification of test protein after incubation with compound. To be noted: 24-h incubation with 100 μM compound at 23° C. at pH 7.5. The format is binding.

The target of the next assay is T3, K-Ras G12D (Homo sapiens, UniProt P01116, G12D).
T3 construct: human K-Ras (G12D, aa 1-169); 6xHis tag + TEV cleavage site (N, cleaved yes); made in house; host or cells: E. coli BL21(DE3)
The description is as above. The format is binding. The following applies: 24-h incubation with 100 μM compound at 23° C. at pH 7.5.

In assay [2] the target is T1, wild type K-Ras. The description is as above. The format is binding. The following applies: 24-h incubation with 100 μM compound at 23° C. at pH 7.5.
For assay [3], the system named is A549 cells (homozygous KRAS p.G12S mutation). Briefly: Immunoblot and Raf-RBD pulldown in A549 cells. It is filed as cell-based. To be noted: 10 μM, 2 h. Here is the method:
Cells were passed for at least two generations after cryorecovery before they were used for assays. All cell lines were tested mycoplasma negative using MycoAlert™ Mycoplasma Detection Kit (Lonza). When indicated, cells were treated with drugs at 40-60% confluency at a final DMSO concentration of 1%. At the end of treatment period, cells were placed on ice. Unless otherwise indicated, adherent cells were washed once with ice-cold PBS (1 mL), scraped with a spatula, and pelleted by centrifugation (500×g, 5 min). Suspension cells were pelleted by centrifugation (500×g, 5 min), washed with 1 mL ice-cold PBS, and pelleted again. Cells were lysed in RIPA buffer supplemented with protease and phosphatase inhibitors (cOmplete and phosSTOP, Roche) on ice for 10 min. For RBD pulldown experiments, cells were lysed in Co-IP Lysis Buffer in lieu of RIPA buffer. Lysates were clarified by high-speed centrifugation (19,000×g, 10 min). Concentrations of lysates were determined with protein BCA assay (Thermo Fisher) and adjusted to 2 mg/mL with additional RIPA buffer (or Co-IP Lysis Buffer). Samples were mixed with 5×SDS Loading Dye and heated at 95° C. for 5 min.
Ras·GTP pulldown was performed with GST-RBD agarose beads (Cytoskeleton, 10 μL, 30 μg loaded GST-RBD). 50 μL lysate (2 mg/mL) was mixed with 10 μL beads, and the suspension was incubated at 4° C. for 1 h with constant end-to-end rotation. The beads were settled by centrifugation (500×g, 5 min) and the supernatant was carefully removed. The beads were washed with 2×500 μL ice-cold Co-IP wash buffer. Bound protein was eluted with 10 μL 2×SDS Loading Buffer.
Membranes were blocked in 5% BSA-TBST for 1 h at 23° C. […] After washing the membrane three times with TBST (5 min each wash), secondary antibodies (goat anti-rabbit IgG-IRDye 800 and goat anti-mouse IgG-IRDye 680, Li-COR) were added as solutions in 5% skim milk-TBST at the dilutions recommended by the manufacturer. Secondary antibody binding was allowed to proceed for 1 h at 23° C. The membrane was washed three times with TBST (5 min each wash) and imaged on a Li-COR Odyssey fluorescence imager.
On the technique in general: A western blot detects proteins with antibodies after separation by electrophoresis.

With `CN1CCC[C@@H]1COc1nc2c(c(N3CCC4(CC3)COC4=O)n1)CCN(c1cccc3cccc(Cl)c13)C2` [Compound 13-005], the “% covalent modification of wild type K-Ras” value on wild type K-Ras [1] and at wild type K-Ras [2] was 73.7% each time. The “% covalent modification of K-Ras G12S” value on K-Ras(G12S) is 72.1%. Besides, the “% covalent modification of K-Ras G12E” value on K-Ras G12E is 72.6%. Besides, the “% covalent modification of K-Ras G12D” value on K-Ras G12D was determined as 75.7%.
Consider `CN1CCC[C@@H]1COc1nc2c(c(N3CC[C@H]4OC(=O)[C@@]4(C)C3)n1)CCN(c1cccc3cccc(Cl)c13)C2` [Compound 12-044], for which the “% covalent modification of wild type K-Ras” value at wild type K-Ras [1] and on wild type K-Ras [2] was 0% each time. Besides, the “% covalent modification of K-Ras G12S” value at K-Ras(G12S) is given as 0%. Also, the “% covalent modification of K-Ras G12E” value at K-Ras G12E is 0%. Moreover, the “% covalent modification of K-Ras G12D” value at K-Ras G12D came out at 0%.
As for `CN1CCC[C@@H]1COc1nc2c(c(N3CC[C@@]4(C)C(=O)O[C@H]4C3)n1)CCN(c1cccc3cccc(Cl)c13)C2` [Compound 12-028], the “% covalent modification of wild type K-Ras” value at wild type K-Ras [1] and on wild type K-Ras [2] was 0% throughout. Further, the “% covalent modification of K-Ras G12S” value on K-Ras(G12S) is recorded as 19.0%. The “% covalent modification of K-Ras G12E” value at K-Ras G12E is given as 0%. Moreover, the “% covalent modification of K-Ras G12D” value on K-Ras G12D is reported as 0%.
With `O=C1O[C@H]2CN(c3nc(OCC45CCCN4CCC5)nc4c3CCN(c3cccc5cccc(Cl)c35)C4)CC[C@@H]12` [4′], the “% covalent modification of wild type K-Ras” value at wild type K-Ras [1] stood at 0%. In addition, at K-Ras(G12S), the “covalent reaction with K-Ras(G12S)·GDP” value is listed as “enhanced reaction” and the “% covalent modification of K-Ras G12S” value is listed as 100%. Moreover, in assay [3], the “effects on phospho-Akt, phospho-Erk and Ras·GTP levels” value is on record as “decreased the level of Ras·GTP”. Besides, the “% covalent modification of K-Ras G12E” value on K-Ras G12E came to 0%. Further, the “% covalent modification of K-Ras G12D” value at K-Ras G12D is listed as 0%. The “% covalent modification of wild type K-Ras” value on wild type K-Ras [2] is listed as 0%.
As to `CN1CCC[C@@H]1COc1nc2c(c(N3CCN4C(=O)C[C@H]4C3)n1)CCN(c1cccc3cccc(Cl)c13)C2` [Compound 12-074], the “% covalent modification of wild type K-Ras” value on wild type K-Ras [1] and at wild type K-Ras [2] was 0% each time. Also, the “% covalent modification of K-Ras G12S” value on K-Ras(G12S) is 0%. In addition, the “% covalent modification of K-Ras G12E” value on K-Ras G12E amounted to 0%. The “% covalent modification of K-Ras G12D” value at K-Ras G12D turned out to be 0%.
As to `CN1CCC[C@H]1COc1nc2c(c(N3CC[C@H]4C(=O)O[C@H]4C3)n1)CCN(c1cccc3cccc(Cl)c13)C2` [3′], the “covalent reaction with K-Ras(G12S)·GDP” value at K-Ras(G12S) was “enhanced reaction”. Moreover, the “effects on phospho-Akt, phospho-Erk and Ras·GTP levels” value in assay [3] is “neither adagrasib nor 3′ had any observable effects on these markers”.
Consider `O=C1OCC12CCN(c1nc(OCC34CCCN3CCC4)nc3c(F)c(-c4cccc5cccc(Cl)c45)ncc13)CC2` [Compound 13-037], for which the “% covalent modification of wild type K-Ras” value on wild type K-Ras [1] and at wild type K-Ras [2] was 0% each time. Further, on K-Ras(G12S), the “% covalent modification of K-Ras G12S” value was found to be 42.5%. Further, the “% covalent modification of K-Ras G12E” value on K-Ras G12E worked out at 0%. Also, the “% covalent modification of K-Ras G12D” value on K-Ras G12D stood at 0%.
As for `CN1CCC[C@H]1COc1nc2c(c(N3CCC4OC(=O)C4C3)n1)CCN(c1cccc3cccc(Cl)c13)C2` (some centres unmarked) [2′], the “covalent adducts with wild-type K-Ras protein” value on wild type K-Ras [1] (10 μM compound, 4 μM protein) was “neither of these compounds formed covalent adducts”. Moreover, the “% covalent modification of wild type K-Ras” value at wild type K-Ras [1] is 0%. Moreover, at K-Ras(G12S), the “covalent reaction with K-Ras(G12S)·GDP” value was “did not yield any covalent adduct” and the “% covalent modification of K-Ras G12S” value amounted to 23.0%. At K-Ras G12E, the “% covalent modification of K-Ras G12E” value was 7.0%. Also, on K-Ras G12D, the “% covalent modification of K-Ras G12D” value was found to be 6.0%. The “% covalent modification of wild type K-Ras” value on wild type K-Ras [2] was found to be 0%.
As for `CC1(c2cc(NCC(=O)N3CC[C@H]4C(=O)O[C@H]4C3)c(O)cc2Cl)CC1` [Compound 06-093], the “% covalent modification of wild type K-Ras” value at wild type K-Ras [1] and on wild type K-Ras [2] was 4.8% throughout. Moreover, on K-Ras(G12S), the “% covalent modification of K-Ras G12S” value is 0%. On K-Ras G12E, the “% covalent modification of K-Ras G12E” value is given as 5.3%. Moreover, the “% covalent modification of K-Ras G12D” value at K-Ras G12D came to 2.4%.
For the compound `O=C1OCC12CCN(c1nc(OCC34CCCN3CCC4)nc3c1CCN(c1cccc4cccc(Cl)c14)C3)CC2` [Compound 13-018], the “% covalent modification of wild type K-Ras” value on wild type K-Ras [1] and on wild type K-Ras [2] was 85.8% in each case. Moreover, at K-Ras(G12S), the “% covalent modification of K-Ras G12S” value amounted to 92.8%. Besides, the “% covalent modification of K-Ras G12E” value at K-Ras G12E was found to be 75.1%. Besides, the “% covalent modification of K-Ras G12D” value on K-Ras G12D is 87.8%.
Take `CN1CCC[C@@H]1COc1nc2c(c(N3CCC4(CC3)CC(=O)O4)n1)CCN(c1cccc3cccc(Cl)c13)C2` [Compound 13-006]: the “% covalent modification of wild type K-Ras” value at wild type K-Ras [1] and on wild type K-Ras [2] was 0% each time. In addition, the “% covalent modification of K-Ras G12S” value at K-Ras(G12S) was determined as 0%. The “% covalent modification of K-Ras G12E” value at K-Ras G12E is recorded as 0%. Moreover, on K-Ras G12D, the “% covalent modification of K-Ras G12D” value is reported as 0%.
